Assay results as given in patent US20230234969A1, “N-LINKED MACROCYCLIC 7-(PYRAZOL-5-YL)-INDOLE DERIVATIVES AS INHIBIORS OF MCL-1” (Janssen Pharmaceutica NV, priority 2020, published 2023).

Assays:
[1] = target: Myeloid Cell Leukemia 1 (Mcl-1) (Homo sapiens, UniProt Q07820); assay: Terbium labeled Mcl-1 HTRF binding assay, displacement of Cy5-labeled BIM BH3 peptide; conditions: 25 pM Tb-Mcl-1, 8 nM Cy5 Bim peptide, Ki=IC50/(1+[L]/Kd), [L]=8 nM, Kd=10 nM, 60 min room temperature, read-out: Tb-MCLl Ki
Protocol: Terbium labeled Myeloid Cell Leukemia 1 (Mcl-1) homogeneous time-resolved fluorescence (HTRF) binding assay utilizing the BIM BH3 peptide (H2N-(C/Cy5Mal) WIAQELRRIGDEFN-OH) as the binding partner for Mcl-1.
This assay evaluated inhibition of the BH3 domain: Mcl-1 interaction by measuring the displacement of Cy5-labeled BIM BH3 peptide (H2N—(C/Cy5Mal) WIAQELRRIGDEFN-OH) in the HTRF assay format.
The following assay and stock buffers were prepared for use in the assay: (a) Stock buffer: 10 mM Tris-HCl, pH=7.5+150 mM NaCl, filtered, sterilized, and stored at 4° C.; and (b) 1×assay buffer, where the following ingredients were added fresh to stock buffer: 2 mM dithiothreitol (DTT), 0.0025% Tween-20, 0.1 mg/mL bovine serum albumin (BSA). The 1×Tb-Mcl-1+Cy5 Bim peptide solution was prepared by diluting the protein stock solution using the 1×assay buffer (b) to 25 pM Tb-Mcl-1 and 8 nM Cy5 Bim peptide.
Using the Acoustic ECHO, 100 nL of 100×test compound(s) were dispensed into individual wells of a white 384-well Perkin Elmer Proxiplate, for a final compound concentration of 1× and final DMSO concentration of 1%. Inhibitor control and neutral control (NC, 100 nL of 100% DMSO) were stamped into columns 23 and 24 of assay plate, respectively. Into each well of the plate was then dispensed 10 μL of the 1×Tb-Mcl-1+Cy5 Bim peptide solution. The plate was centrifuged with a cover plate at 1000 rpm for 1 minute, then incubated for 60 minutes at room temperature with plates covered. The TR-FRET signal was read on an BMG PHERAStar FSX MicroPlate Reader at room temperature using the HTRF optic module (HTRF: excitation: 337 nm, light source: laser, emission A: 665 nm, emission B: 620 nm, integration start: 60 μs, integration time: 400 μs).
The BMG PHERAStar FSX MicroPlate Reader was used to measure fluorescence intensity at two emission wavelengths—665 nm and 620 nm—and report relative fluorescence units (RFU) for both emissions, as well as a ratio of the emissions (665 nm/620 nm)*10,000. The RFU values were normalized to percent inhibition as follows:
% inhibition=(((NC−IC)−(compound−IC))/(NC−IC))*100
where IC (inhibitor control, low signal)=mean signal of 1×Tb-MCl-1+Cy5 Bim peptide+inhibitor control or 100% inhibition of Mcl-1; NC (neutral control, high signal)=mean signal 1×Tb-MCl-1+Cy5 Bim peptide with DMSO only or 0% inhibition
An 11-point dose response curve was generated to determine IC50 values (using GenData) based on the following equation:
Y=Bottom+(Top−Bottom)/(1+10^((log IC50−X)*HillSlope))
where Y=% inhibition in the presence of X inhibitor concentration; Top=100% inhibition derived from the IC (mean signal of Mcl-1+inhibitor control); Bottom=0% inhibition derived from the NC (mean signal of Mcl-1+DMSO); Hillslope=Hill coefficient; and IC50=concentration of compound with 50% inhibition in relation to top/neutral control (NC).
In this assay [L]=8 nM and Kd=10 nM
Representative compounds of the present invention were tested according to the procedure as described above, with results as listed in the Table below (n.d. means not determined).

[2] = tested on: MOLP-8 human multiple myeloma cell line; assay: Caspase-Glo 3/7 assay in MOLP-8 cells (apoptosis induction); type: cell-based; conditions: MOLP8 cells, 2 hours incubation at 37° C.; averaged values over all runs on all batches
Description: MCL-1 is a regulator of apoptosis and is highly over-expressed in tumor cells that escape cell death. The assay evaluates the cellular potency of small-molecule compounds targeting regulators of the apoptosis pathway, primarily MCL-1, Bfl-1, Bcl-2, and other proteins of the Bcl-2 family. Protein-protein inhibitors disrupting the interaction of anti-apoptotic regulators with BH3-domain proteins initiate apoptosis.
The Caspase-Glo® 3/7 Assay is a luminescent assay that measures caspase-3 and -7 activities in purified enzyme preparations or cultures of adherent or suspension cells. The assay provides a proluminescent caspase-3/7 substrate, which contains the tetrapeptide sequence DEVD. This substrate is cleaved to release aminoluciferin, a substrate of luciferase used in the production of light. Addition of the single Caspase-Glo® 3/7 Reagent in an “add-mix-measure” format results in cell lysis, followed by caspase cleavage of the substrate and generation of a “glow-type” luminescent signal.
This assay uses the MOLP-8 human multiple myeloma cell line, which is sensitive to MCL-1 inhibition.
Cell cultures were maintained between 0.2 and 2.0×10^6 cells/mL. The cells were harvested by collection in 50 mL conical tubes. The cells were then pelleted at 500 g for 5 mins before removing supernatant and resuspension in fresh pre-warmed culture medium. The cells were counted and diluted as needed.
The assay reagent was prepared by transferring the buffer solution to the substrate vial and mixing. The solution may be stored for up to 1 week at 4° C. with negligible loss of signal.
Compounds were delivered in assay-ready plates (Proxiplate) and stored at −20° C. Assays always include 1 reference compound plate containing reference compounds. The plates were spotted with 40 nL of compounds (0.5% DMSO final in cells; serial dilution; 30 μM highest conc. 1/3 dilution, 10 doses, duplicates). The compounds were used at room temperature and 4 μL of pre-warmed media was added to all wells except column 2 and 23. The negative control was prepared by adding 1% DMSO in media. The positive control was prepared by adding the appropriate positive control compound in final concentration of 60 μM in media. The plate was prepared by adding 4 μL negative control to column 23, 4 μL positive control to column 2 and 4 μL cell suspension to all wells in the plate. The plate with cells was then incubated at 37° C. for 2 hours. The assay signal reagent is the Caspase-Glo solution described above, and 8 μL was added to all wells. The plates were then sealed and measured after 30 minutes.
The activity of a test compound was calculated as percent change in apoptosis induction as follows:
[formula] % Effect (AC50)=100−((sample−LC)/(HC−LC))*100
% Control=(sample/HC)*100
% Control min=(sample−LC)/(HC−LC)*100

Sequence of Myeloid Cell Leukemia 1 (Mcl-1) (Q07820 whole entry): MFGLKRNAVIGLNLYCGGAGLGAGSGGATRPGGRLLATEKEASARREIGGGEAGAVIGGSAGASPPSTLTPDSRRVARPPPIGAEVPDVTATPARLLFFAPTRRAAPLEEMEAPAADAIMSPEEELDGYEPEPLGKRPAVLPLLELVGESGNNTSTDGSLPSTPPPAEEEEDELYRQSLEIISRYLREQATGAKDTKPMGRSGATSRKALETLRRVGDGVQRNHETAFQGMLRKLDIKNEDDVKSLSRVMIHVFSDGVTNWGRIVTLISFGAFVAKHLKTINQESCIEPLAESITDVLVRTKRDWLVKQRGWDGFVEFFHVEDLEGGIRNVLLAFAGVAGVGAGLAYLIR

Structure (SMILES) | Ki [1] | AC50 [2]
CCn1c(C(=O)O)c2c3ccc(Cl)c(c31)-c1c(C)c(C)nn1CCCc1cc(n(C)n1)CCc1cc(c3ccc(F)cc3c1)OCCC2 (single isomer, unassigned) [Compound 3] | 0.043 nM | 36 nM
CCn1c(C(=O)O)c2c3ccc(Cl)c(c31)-c1c(C)c(C)nn1CCCc1cc(n(C)n1)CCc1cc(c3ccc(F)cc3c1)OCCC2 (single isomer, unassigned) [Compound 4] | 33.7 nM | 13100 nM
CCn1c(C(=O)O)c2c3ccc(Cl)c(c31)-c1c(C)c(C)nn1CCCc1cc(n(CCN(C)C)n1)CCc1cc(c3ccc(F)cc3c1)OCCC2 (single isomer, unassigned) [Compound 7] | 0.052 nM | 16 nM
CCn1c(C(=O)O)c2c3ccc(Cl)c(c31)-c1c(C)c(C)nn1CCCc1cc(n(CCOC)n1)CCc1cc(c3ccc(F)cc3c1)OCCC2 (single isomer, unassigned) [Compound 10] | 3.06 nM | 3060 nM
COCCOCCn1c(C(=O)O)c2c3ccc(Cl)c(c31)-c1c(C)c(C)nn1CCCc1cc(n(C)n1)CCc1cc(c3ccc(F)cc3c1)OCCC2 (single isomer, unassigned) [Compound 6] | 1.93 nM | 1930 nM
CCn1c(C(=O)O)c2c3ccc(Cl)c(c31)-c1c(C)c(C)nn1CCCc1cc(n(CCOC)n1)CCc1cc(c3ccc(F)cc3c1)OCCC2 (single isomer, unassigned) [Compound 9] | 0.061 nM | 53 nM
CCn1c(C(=O)O)c2c3ccc(Cl)c(c31)-c1c(C)c(C)nn1CCCc1cc(n(CCN(C)C)n1)CCc1cc(c3ccc(F)cc3c1)OCCC2 (single isomer, unassigned) [Compound 8] | 8.06 nM | 1560 nM
COCCOCCn1c(C(=O)O)c2c3ccc(Cl)c(c31)-c1c(C)c(C)nn1CCCc1cc(n(C)n1)CCc1cc(c3ccc(F)cc3c1)OCCC2 (single isomer, unassigned) [Compound 5] | 0.027 nM | 27 nM
Cc1nn2c(c1C)-c1c(Cl)ccc3c(c(C(=O)O)n(C)c13)CCCOc1cc(cc3ccccc13)SCc1cc(nn1C)CCC2 (single isomer, unassigned) [Compound 1] | 0.09 nM | 67 nM
Cc1nn2c(c1C)-c1c(Cl)ccc3c(c(C(=O)O)n(C)c13)CCCOc1cc(cc3ccccc13)SCc1cc(nn1C)CCC2 (single isomer, unassigned) [Compound 2] | 3.21 nM | 2710 nM
